The source of these data is patent US7517873B2, “Substituted pyrimidodiazepines” (Hoffman-La Roche Inc., priority 2007, dated 2009).

For the assay, the target named is T1, GST-PLK1 (Homo sapiens, UniProt P53350).
T1 construct: Full-length, active GST-PLK1 is purified from Sf9 insect cells; made in house; host or cells: Sf9 insect cells
Put plainly: Biochemical Characterization Assay: GST-PLK1 kinase HTRF assay with GST-p53 substrate. The conditions noted are these: full-length GST-PLK1, GST-p53 and ATP, 37° C. for 35 minutes, HTRF signal. As for the experimental part:
Biochemical Characterization Assay
Full-length, active GST-PLK1 is purified from Sf9 insect cells, and full-length GST-p53 is purified from E. coli. Anti-phospho p53 antibody is from Cell Signaling Technology. Europium-conjugated anti-rabbit antibody is from PerkinElmer Life and Analytical Sciences. APC-conjugated anti-GST antibody is from Prozyme.
To assay compounds of the invention, two microliters of test compound (0.6 nM-4 mM) in DMSO or plain DMSO for control wells, 38 microliters of 20 mM HEPES pH 7, 50 mM NaCl, 10 mM MgCl2, 0.5 mM TCEP, 0.1 mM sodium orthovanadate, 0.1 mg/mL BSA, and 0.05% Triton X-100 (Kinase Assay Buffer) are added. […] Six microliters of GST-PLK1 (3 ug/mL) in Kinase Assay Buffer are then added and the solution incubated at 37° C. for 35 minutes. Six microliters of solution containing 43 mM EDTA to stop the reaction and a 1:600 dilution of anti-phospho-p53 antibody in 20 mM HEPES pH 7, 50 mM NaCl, and 0.5 mg/mL BSA (Antibody Binding Buffer) are added and the solution incubated at 37° C. for 30 minutes. […] The HTRF signal is read on an Envision reader from PerkinElmer Life and Analytical Sciences.
In general terms: In TR-FRET formats the signal depends on donor and acceptor labels being close together.

T1 sequence (P53350 whole entry): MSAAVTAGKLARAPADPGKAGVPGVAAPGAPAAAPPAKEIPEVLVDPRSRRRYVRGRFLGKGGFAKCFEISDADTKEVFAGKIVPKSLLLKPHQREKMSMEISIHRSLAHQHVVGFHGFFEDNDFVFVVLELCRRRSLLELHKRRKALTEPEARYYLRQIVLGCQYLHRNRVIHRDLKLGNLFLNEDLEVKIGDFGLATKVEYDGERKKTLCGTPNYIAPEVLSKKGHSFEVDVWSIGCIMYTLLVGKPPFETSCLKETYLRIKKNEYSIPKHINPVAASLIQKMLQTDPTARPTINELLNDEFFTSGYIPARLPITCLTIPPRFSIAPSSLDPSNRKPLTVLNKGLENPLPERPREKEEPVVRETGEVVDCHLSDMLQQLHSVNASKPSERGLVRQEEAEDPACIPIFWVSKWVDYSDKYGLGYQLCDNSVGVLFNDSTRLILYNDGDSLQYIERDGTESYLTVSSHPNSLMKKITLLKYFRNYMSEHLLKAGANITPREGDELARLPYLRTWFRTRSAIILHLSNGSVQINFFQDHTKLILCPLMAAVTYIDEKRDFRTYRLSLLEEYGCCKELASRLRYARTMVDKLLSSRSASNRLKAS

In general, IC50 refers to the concentration that gives 50% inhibition. `CC1CN(C2CCCC2)c2nc(Nc3cccc(C(=O)Nc4ccncc4)c3)ncc2N(C)C1=O` (racemic) [I-92, (rac)-3-(9-Cyclopentyl-5,7-dimethyl-6-oxo-6,7,8,9-tetrahydro-5H-pyrimido[4,5-b][1,4]diazepin-2-ylamino)-N-pyridin-4-yl-benzamide] registered a 50% inhibitory concentration (IC50) of over 5000 nM. On to `COc1cc(C(N)=O)ccc1Nc1ncc2c(n1)N(C1CCC1)CCC(=O)N2C` [I-34, 4-(9-Cyclobutyl-5-methyl-6-oxo-6,7,8,9-tetrahydro-5H-pyrimido[4,5-b][1,4]diazepin-2-ylamino)-3-methoxy-benzamide], for which the IC50 lay within 500 to 5000 nM. As to `COc1cc(C(=O)NC2CCN(C)CC2)ccc1Nc1ncc2c(n1)N(C1CCCC1)C[C@@H](C)C(=O)N2C` [I-2a, 7R-4-(9-Cyclopentyl-5,7-dimethyl-6-oxo-6,7,8,9-tetrahydro-5H-pyrimido[4,5-b][1,4]diazepin-2-ylamino)-3-methoxy-N-(1-methyl-piperidin-4-yl)-benzamide], the IC50 was under 500 nM. As to `COc1cc(C(=O)NC2CCN(C)CC2)ccc1Nc1ncc2c(n1)N(C1CCCC1)CC(C)(C)C(=O)N2C` [I-39, 4-(9-Cyclopentyl-5,7,7-trimethyl-6-oxo-6,7,8,9-tetrahydro-5H-pyrimido[4,5-b][1,4]diazepin-2-ylamino)-3-methoxy-N-(1-methyl-piperidin-4-yl)-benzamide], the 50% inhibitory concentration (IC50) was under 500 nM.

In turn, `CC1CN(C2CCCC2)c2nc(Nc3ccc4oc(-c5ccncc5)nc4c3)ncc2N(C)C1=O` (racemic) [I-76, (rac)-9-Cyclopentyl-5,7-dimethyl-2-(2-pyridin-4-yl-benzooxazol-5-ylamino)-5,7,8,9-tetrahydro-pyrimido[4,5-b][1,4]diazepin-6-one] yielded an IC50 of over 5000 nM. On to `COc1cc(C(=O)NCCCn2ccnc2)ccc1Nc1ncc2c(n1)N(C1CCC1)CCC(=O)N2C` [I-36, 4-(9-Cyclobutyl-5-methyl-6-oxo-6,7,8,9-tetrahydro-5H-pyrimido[4,5-b][1,4]diazepin-2-ylamino)-N-(3-imidazol-1-yl-propyl)-3-methoxy-benzamide], for which the concentration for half-maximal inhibition (IC50) was under 500 nM.

Consider `CC1CN(C2CCCC2)c2nc(Nc3ccc(OCc4ccccc4)cc3)ncc2N(C)C1=O` (racemic) [I-75, (rac)-2-(4-Benzyloxy-phenylamino)-9-cyclopentyl-5,7-dimethyl-5,7,8,9-tetrahydro-pyrimido[4,5-b][1,4]diazepin-6-one], for which the IC50 was over 5000 nM. The figure for `Cc1cc(C(=O)NC2CCN(C)CC2)ccc1Nc1ncc2c(n1)N(C1CCCC1)CC1(CC1)C(=O)N2C` [I-61, 4-[(9-Cyclopentyl-6,7,8,9-tetrahydro-5-methyl-6-oxospiro[5H-pyrimido[4,5-b][1,4]diazepine-7,1′-cyclopropan]-2-yl)amino]-3-methyl-N-(1-methyl-4-piperidinyl)benzamide] is under 500 nM; for `COc1cc(C(=O)NC2CCN(C)CC2)ccc1Nc1ncc2c(n1)N(C1CCCC1(C)C)CCC(=O)N2C` (racemic) [I-59, (rac)-4-[9-(2,2-Dimethyl-cyclopentyl)-5-methyl-6-oxo-6,7,8,9-tetrahydro-5H-pyrimido[4,5-b][1,4]diazepin-2-ylamino]-3-methoxy-N-(1-methyl-piperidin-4-yl)-benzamide] it is under 500 nM. As to `COc1ccc(C(=O)NC2CCOCC2)cc1Nc1ncc2c(n1)N(C1CCCC1)CC(C)C(=O)N2C` (racemic) [I-74, (rac)-3-(9-Cyclopentyl-5,7-dimethyl-6-oxo-6,7,8,9-tetrahydro-5H-pyrimido[4,5-b][1,4]diazepin-2-ylamino)-4-methoxy-N-(tetrahydro-pyran-4-yl)-benzamide], the IC50 was under 500 nM. For `COc1cc(C(=O)Nc2ccncc2)ccc1Nc1ncc2c(n1)N(C1CCC1)CCC(=O)N2C` [I-37, 4-(9-Cyclobutyl-5-methyl-6-oxo-6,7,8,9-tetrahydro-5H-pyrimido[4,5-b][1,4]diazepin-2-ylamino)-3-methoxy-N-pyridin-4-yl-benzamide], the IC50 was under 500 nM. As to `COc1cc(C(=O)NC2CCN(C)CC2)ccc1Nc1ncc2c(n1)N(Cc1ccccc1)CC(C)C(=O)N2C` (racemic) [I-42, (rac)-4-(9-Benzyl-5,7-dimethyl-6-oxo-6,7,8,9-tetrahydro-5H-pyrimido[4,5-b][1,4]diazepin-2-ylamino)-3-methoxy-N-(1-methyl-piperidin-4-yl)-benzamide], the IC50 fell in the range of 500 to 5000 nM. The figure for `COc1cc(C(=O)Nc2ccccc2)ccc1Nc1ncc2c(n1)N(C1CCCCC1)CCC(=O)N2` [I-28, 4-(9-Cyclohexyl-6-oxo-6,7,8,9-tetrahydro-5H-pyrimido[4,5-b][1,4]diazepin-2-ylamino)-3-methoxy-N-phenyl-benzamide] is over 5000 nM. The molecule `COc1cc(C(=O)NC2CCN(C)CC2)ccc1Nc1ncc2c(n1)N(C1CCCC1)C1CCCC1C(=O)N2C` (racemic) [I-68, (rac)-4-(4-Cyclopentyl-9-methyl-10-oxo-1,2,3,3a,4,9,10,10a-octahydro-4,5,7,9-tetraaza-benzo[f]azulen-6-ylamino)-3-methoxy-N-(1-methyl-piperidin-4-yl)-benzamide] registered a 50% inhibitory concentration (IC50) of under 500 nM. For the molecule `COc1cc(C(=O)NC2CCN(C)CC2)ccc1N(C)c1ncc2c(n1)N(C1CCCCC1)CC(C)C(=O)N2C` (racemic) [I-66, (rac)-4-[(9-Cyclohexyl-5,7-dimethyl-6-oxo-6,7,8,9-tetrahydro-5H-pyrimido[4,5-b][1,4]diazepin-2-yl)-methyl-amino]-3-methoxy-N-(1-methyl-piperidin-4-yl)-benzamide], the 50% inhibitory concentration (IC50) is over 5000 nM. The figure for `CC1CN(C2CCCC2)c2nc(Nc3cccc(C(=O)Nc4cccnc4)c3)ncc2N(C)C1=O` (racemic) [I-72, (rac)-3-(9-Cyclopentyl-5,7-dimethyl-6-oxo-6,7,8,9-tetrahydro-5H-pyrimido[4,5-b][1,4]diazepin-2-ylamino)-N-pyridin-3-yl-benzamide] is under 500 nM. For `COc1cc(C(=O)NC2CCN(C)CC2)ccc1Nc1ncc2c(n1)N(C1CC1)C(C)C(C)C(=O)N2C` (racemic) [I-46, (rac)-4-(9-Cyclopropyl-5,7,8-trimethyl-6-oxo-6,7,8,9-tetrahydro-5H-pyrimido[4,5-b][1,4]diazepin-2-ylamino)-3-methoxy-N-(1-methyl-piperidin-4-yl)-benzamide], the IC50 is under 500 nM.

`CCN1CCC(NC(=O)c2cccc(Nc3ncc4c(n3)N(C3CCCC3)CC(C)C(=O)N4C)c2)CC1` (racemic) [I-89, (rac)-3-(9-Cyclopentyl-5,7-dimethyl-6-oxo-6,7,8,9-tetrahydro-5H-pyrimido[4,5-b][1,4]diazepin-2-ylamino)-N-(1-ethyl-piperidin-4-yl)-benzamide] displayed an IC50 of 500 to 5000 nM. Regarding `COc1cc(C(=O)NC2CCN(C)CC2)ccc1Nc1ncc2c(n1)N(C1CCCCC1)CC(C)C(=O)N2C` (racemic) [I-19, (rac)-4-(9-Cyclohexyl-5,7-dimethyl-6-oxo-6,7,8,9-tetrahydro-5H-pyrimido[4,5-b][1,4]diazepin-2-ylamino)-3-methoxy-N-(1-methyl-piperidin-4-yl)-benzamide], the IC50 was under 500 nM. The molecule `CC1CN(C2CCCC2)c2nc(Nc3ccc(C(=O)NCCN(C)C)c(Cl)c3)ncc2N(C)C1=O` (racemic) [I-87, (rac)-2-Chloro-4-(9-cyclopentyl-5,7-dimethyl-6-oxo-6,7,8,9-tetrahydro-5H-pyrimido[4,5-b][1,4]diazepin-2-ylamino)-N-(2-dimethylamino-ethyl)-benzamide] yielded an IC50 of 500 to 5000 nM. `COc1cc(C(=O)NC2CCOCC2)ccc1Nc1ncc2c(n1)N(C1CCCCC1)CCC(=O)N2` [I-33, 4-(9-Cyclohexyl-6-oxo-6,7,8,9-tetrahydro-5H-pyrimido[4,5-b][1,4]diazepin-2-ylamino)-3-methoxy-N-(tetrahydro-pyran-4-yl)-benzamide] yielded an IC50 of over 5000 nM. Turning to `COc1cc(C(=O)NC2CCN(C)CC2)ccc1Nc1ncc2c(n1)N(C1CCCC1C)CCC(=O)N2C` (racemic) [I-57, (rac)-3-Methoxy-4-[5-methyl-9-(2-methyl-cyclopentyl)-6-oxo-6,7,8,9-tetrahydro-5H-pyrimido[4,5-b][1,4]diazepin-2-ylamino]-N-(1-methyl-piperidin-4-yl)-benzamide], the half-inhibitory concentration (IC50) was under 500 nM.

`COc1cc(C(=O)NC2CCN(C)CC2)ccc1Nc1ncc2c(n1)N(C1CCCC1)CC1(CC1)C(=O)N2C` [I-54, 4-[(9-Cyclopentyl-6,7,8,9-tetrahydro-5-methyl-6-oxospiro[5H-pyrimido[4,5-b][1,4]diazepine-7,1′-cyclopropan]-2-yl)amino]-3-methoxy-N-(1-methyl-4-piperidinyl)benzamide] yielded an IC50 of under 500 nM. `COc1cc(C(=O)NC2CCN(C)CC2)ccc1Nc1ncc2c(n1)N1CCC[C@@H]1CC(=O)N2C` [I-102, (3R)-3-methoxy-4-(6-methyl-5-oxo-2,3,3a,4,5,6-hexahydro-1H-6,8,10,10b-tetraaza-benzo[e]azulen-9-ylamino)-N-(1-methyl-piperidin-4-yl)-benzamide]: the IC50 was under 500 nM. For the molecule `CC1CN(C2CCCCC2)c2nc(Nc3ccc4oc(-c5ccncc5)nc4c3)ncc2N(C)C1=O` (racemic) [I-26, (rac)-9-Cyclohexyl-5,7-dimethyl-2-(2-pyridin-4-yl-benzooxazol-5-ylamino)-5,7,8,9-tetrahydro-pyrimido[4,5-b][1,4]diazepin-6-one], the concentration for half-maximal inhibition (IC50) was over 5000 nM.
